Patent publication US20040220148A1, “5-Membered ring heterocycles as inhibitors of leucocyte adhesion and as VLA-4 antagonists” (Aventis Pharma Deutschland GmbH, priority 1996, published 2004)
Counter-ions that a name gives are not always drawn.

molecular target: T1, VLA-4 integrins on human U937 cells (interaction between VCAM-1 and VLA-4) (Homo sapiens, UniProt P05556+P13612); experiment: U937/VCAM-1 cell adhesion test (adhesion of U937 cells to hVCAM-1(1-3)-IgG); type: cell-based; conditions: concentration leading to 50% inhibition of adhesion
T1 construct: the VLA-4 integrins, are offered in their natural form as surface molecules on human U937 cells; host or cells: U937 cells (VLA-4, endogenous); the partner hVCAM-1(1-3)-IgG came from the supernatant of transfected COS cells (ATCC CRL1651)
Text: As a test method for the activity of the compounds of the formula I on the interaction between VCAM-1 and VLA-4, an assay which is specific for this interaction is used. The cellular binding components, i.e. the VLA-4 integrins, are offered in their natural form as surface molecules on human U937 cells (ATCC CRL 1593) which belong to the group of leucocytes. As specific binding components, recombinant soluble fusion proteins prepared by genetic engineering and consisting of the extracytoplasmic domains of human VCAM-1 and the constant region of a human immunoglobulin of the subclass IgG1 are used.
Assay for the Measurement of the Adhesion of U937 Cells (ATCC CRL 1593) to hVCAM-1 (1-3)-IgG
1. Preparation of Human VCAM-1(1-3)-IgG and Human CD4-IgG
A genetic construct for the expression of the extracellular domains of human VCAM-1 was employed, associated with the genetic sequence of the heavy chain of human immunoglobulin IgG1 (hinge, CH2 and CH3 regions), from Dr. Brian Seed, Massachusetts General Hospital, Boston, USA. The soluble fusion protein hVCAM-1(1-3)-IgG contained the three amino-terminal extracellular immunoglobulin-like domains of human VCAM-1 (Damle and Aruffo, Proc. Natl. Acad. Sci. USA 1991, 88, 6403). CD4-IgG (Zettlmeissl et al, DNA and Cell Biology 1990, 9, 347) served as a fusion protein for negative controls. The recombinant proteins were expressed as soluble proteins after DEAE/dextran-mediated DNA-transfection in COS cells (ATCC CRL1651) according to standard procedures (Ausubel et al., Current protocols in molecular biology, John Wiley & Sons, Inc., 1994).
2. Assay for Measurement of the Adhesion of U937 Cells to hVCAM-1(1-3)-IgG
2.1 96-well microtiter test plates (Nunc Maxisorb) were incubated at room temperature for 1 hour with 100 μl/well of a goat-anti-human IgG antibody solution (10 μg/ml in 50 mM tris, pH 9.5). After removing the antibody solution, washing was carried out once with PBS.
2.2 150 μl/well of a blocking buffer (1% BSA in PBS) were incubated on the plates at room temperature for 0.5 hours. After removing the blocking buffer, washing was carried out once with PBS.
2.3 100 μl per well of a cell culture supernatant of transfected COS cells were incubated on the plates at room temperature for 1.5 hours. The COS cells were transfected with a plasmid which codes for the three N-terminal immunoglobulin-like domains of VCAM-1, coupled to the Fc part of human IgG1 (hVCAM-1(1-3)-IgG). The content of hVCAM-1 (1-3)-IgG was about […]. After removing the culture supernatant, washing was carried out once with PBS.
2.4 The plates were incubated at room temperature for 20 minutes with […] of Fc receptor blocking buffer (1 mg/ml of γ-globulin, 100 mM NaCl, 100 μM MgCl2, 100 μM MnCl2, 100 μM CaCl2, 1 mg/ml BSA in 50 mM HEPES, pH 7.5). After removing the Fc receptor blocking buffer, washing was carried out once with PBS.
2.5 20 μl of binding buffer (100 mM NaCl, 100 μM MgCl2, 100 μM MgCl2, 100 μM CaCl2, 1 mg/ml BSA in 50 mM HEPES, pH 7.5), were initially introduced, the substances to be tested were added in 10 μl of binding buffer and the mixture was incubated for 20 minutes. As controls, antibodies against VCAM-1 (BBT, No. BBA6) and against VLA-4
(Immunotech, No. 0764) were used.
2.6 U937 cells were incubated in Fc receptor blocking buffer for 20 minutes and then pipetted in at a concentration of 1×10^6/ml and in an amount of 100 μl per well ([…]).
2.7 The plates were slowly immersed at an angle of 45° in stop buffer (100 mM NaCl, 100 μM MgCl2, 100 μM MnCl2, 100 μM CaCl2 in 25 mM Tris, pH 7.5) and shaken off. The process was repeated.
2.8 50 μl/well of a dye solution (16.7 μg/ml of Hoechst dye 33258, 4% formaldehyde, 0.5% Triton X-100 in PBS) were then incubated on the plates for 15 minutes.
2.9 The plates were shaken off and slowly immersed at an angle of 45° in stop buffer (100 mM NaCl, 100 μM MgCl2, 100 μM MnCl2, 100 μM CaCl2 in 25 mM Tris, pH 7.5). The process was repeated. […]

T1 sequence (P13612 34-1032): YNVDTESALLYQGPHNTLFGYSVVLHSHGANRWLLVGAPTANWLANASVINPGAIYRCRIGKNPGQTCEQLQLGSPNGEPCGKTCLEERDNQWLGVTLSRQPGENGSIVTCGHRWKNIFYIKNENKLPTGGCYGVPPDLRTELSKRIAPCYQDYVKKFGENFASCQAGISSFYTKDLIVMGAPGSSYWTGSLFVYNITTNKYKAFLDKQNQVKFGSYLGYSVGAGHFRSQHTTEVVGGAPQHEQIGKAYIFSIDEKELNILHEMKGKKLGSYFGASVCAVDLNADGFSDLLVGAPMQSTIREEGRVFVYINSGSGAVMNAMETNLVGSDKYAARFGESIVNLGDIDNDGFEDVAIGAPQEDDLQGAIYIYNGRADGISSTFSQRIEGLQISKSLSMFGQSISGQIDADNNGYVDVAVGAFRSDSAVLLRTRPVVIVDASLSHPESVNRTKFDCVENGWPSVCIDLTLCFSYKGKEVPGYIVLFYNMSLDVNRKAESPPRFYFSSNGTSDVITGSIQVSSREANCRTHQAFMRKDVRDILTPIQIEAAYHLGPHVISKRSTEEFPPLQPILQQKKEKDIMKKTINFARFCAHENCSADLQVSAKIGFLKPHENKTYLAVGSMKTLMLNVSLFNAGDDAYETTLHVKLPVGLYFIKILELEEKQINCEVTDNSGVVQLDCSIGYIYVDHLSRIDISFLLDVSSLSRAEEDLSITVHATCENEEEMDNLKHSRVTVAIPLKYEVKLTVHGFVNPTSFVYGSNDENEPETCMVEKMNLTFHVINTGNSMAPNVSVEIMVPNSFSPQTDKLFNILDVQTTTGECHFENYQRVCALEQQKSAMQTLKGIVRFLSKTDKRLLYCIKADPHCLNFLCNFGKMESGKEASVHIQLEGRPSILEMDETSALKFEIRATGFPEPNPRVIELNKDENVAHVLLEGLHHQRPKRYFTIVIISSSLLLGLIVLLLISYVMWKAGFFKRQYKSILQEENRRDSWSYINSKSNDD
T1 sequence (P05556 21-798): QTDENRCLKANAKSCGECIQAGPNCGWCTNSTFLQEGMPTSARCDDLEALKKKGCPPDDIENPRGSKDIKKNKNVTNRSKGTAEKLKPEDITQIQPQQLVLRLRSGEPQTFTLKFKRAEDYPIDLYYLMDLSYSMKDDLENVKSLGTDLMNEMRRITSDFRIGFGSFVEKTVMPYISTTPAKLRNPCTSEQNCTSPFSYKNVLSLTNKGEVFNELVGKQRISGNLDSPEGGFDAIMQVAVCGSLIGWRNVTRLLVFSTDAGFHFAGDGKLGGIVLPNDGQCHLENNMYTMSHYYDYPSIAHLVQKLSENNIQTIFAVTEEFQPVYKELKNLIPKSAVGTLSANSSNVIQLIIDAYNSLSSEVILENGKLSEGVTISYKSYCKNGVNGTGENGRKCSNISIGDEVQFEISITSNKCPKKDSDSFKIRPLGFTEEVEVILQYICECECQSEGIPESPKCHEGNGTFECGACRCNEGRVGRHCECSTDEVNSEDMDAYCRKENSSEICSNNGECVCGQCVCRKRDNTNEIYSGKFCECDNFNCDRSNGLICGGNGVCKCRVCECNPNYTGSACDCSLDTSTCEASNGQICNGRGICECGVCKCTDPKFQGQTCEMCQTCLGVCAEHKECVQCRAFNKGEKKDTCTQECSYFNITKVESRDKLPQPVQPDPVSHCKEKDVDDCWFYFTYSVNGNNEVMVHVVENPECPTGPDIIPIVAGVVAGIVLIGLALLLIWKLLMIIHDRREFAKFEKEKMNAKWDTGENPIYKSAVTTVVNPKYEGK

Point of comparison: CC1(c2ccc(N)cc2)C(=O)N(CC(=O)N[C@@H](CC(=O)O)C(=O)N[C@H](C(=O)O)c2ccccc2)C(=O)N1Cc1ccccc1 (stereo partly drawn) [Example 70, ((R,S)-4-(4-Aminophenyl)-3-benzyl-4-methyl-2,5-dioxoimidazolidin-1-yl)acetyl-L-aspartyl-L-phenylglycine], IC50 3 µM. Against it:
- CC1(c2ccc(C(=N)N)cc2)C(=O)N(CC(=O)N[C@@H](CC(=O)O)C(=O)N[C@H](C(=O)O)c2ccccc2)C(=O)N1Cc1ccccc1 (stereo partly drawn) [Example 4, ((R,S)-4-(4-(Amino-imino-methyl)phenyl)-3-benzyl-4-methyl-2,5-dioxoimidazolidin-1-yl)acetyl-L-aspartyl-L-phenylglycine] — 2.7-fold lower, 1.1 µM
- C[C@@]1(c2ccc(C(=N)N)cc2)C(=O)N(CC(=O)N[C@@H](CC(=O)O)C(=O)N[C@H](C(=O)O)c2ccccc2)C(=O)N1Cc1ccc2ccccc2c1 [Example 9, ((R,S)-4-(4-(Amino-imino-methyl)phenyl)-3-((2-naphthyl)methyl)-4-methyl-2,5-dioxoimidazolidin-1-yl)acetyl-L-aspartyl-L-phenylglycine] — 6-fold lower, 0.5 µM
- CN(C(=O)CN1C(=O)N(Cc2ccc(-c3ccccc3)cc2)C(C)(c2ccc(C(=N)N)cc2)C1=O)[C@@H](CC(=O)O)C(=O)N[C@H](C(=O)O)c1ccccc1 (stereo partly drawn) [Example 18, ((R,S)-4-(4-(Amino-imino-methyl)phenyl)-3-((4-biphenylyl)methyl)-4-methyl-2,5-dioxoimidazolidin-1-yl)acetyl-L-N-methyl-aspartyl-L-phenylglycine] — 33-fold lower, 0.09 µM
- N=C(N)c1ccc(C2(Cc3ccccc3)C(=O)N(CC(=O)N[C@@H](CC(=O)O)C(=O)N[C@H](C(=O)O)c3ccccc3)C(=O)N2Cc2ccccc2)cc1 (stereo partly drawn) [Example 20, ((R,S)-4-(4-(Amino-imino-methyl)phenyl)-3,4-dibenzyl-2,5-dioxo-imidazolidin-1-yl)acetyl-L-aspartyl-L-phenylglycine] — 1.5-fold lower, 2 µM
- CC1(c2ccc(C(=N)N)cc2)C(=O)N(CC(=O)NC(CC(=O)O)c2ccccc2)C(=O)N1Cc1ccccc1 [Example 33, (R,S)-3-(((R,S)-4-(4-(Amino-imino-methyl)phenyl)-3-benzyl-4-methyl-2,5-dioxoimidazolidin-1-yl)acetylamino)-3-phenylpropionic acid hydrochloride] — 15-fold higher, 45 µM
- CCN1C(=O)N(CC(=O)N[C@@H](CC(=O)O)C(=O)N[C@H](C(=O)O)c2ccccc2)C(=O)[C@@H]1CCCN [Example 35, ((S)-4-(3-Aminopropyl)-3-ethyl-2,5-dioxoimidazolidin-1-yl)acetyl-L-aspartyl-L-phenylglycine] — 83-fold higher, 250 µM
- CCN1C(=O)N(CC(=O)N[C@@H](CC(=O)O)C(=O)N[C@@H](C(=O)O)c2ccccc2)C(=O)[C@@H]1CCCNC(=N)N [Example 36, ((S)-4-(3-Guanidinopropyl)-3-ethyl-2,5-dioxoimidazolidin-1-yl)acetyl-L-aspartyl-D-phenylglycine] — 83-fold higher, 250 µM
- NCCC[C@H]1C(=O)N(CC(=O)N[C@@H](CC(=O)O)C(=O)N[C@H](C(=O)O)c2ccccc2)C(=O)N1Cc1ccccc1 [Example 37, ((S)-4-(3-Aminopropyl)-3-benzyl-2,5-dioxoimidazolidin-1-yl)acetyl-L-aspartyl-L-phenylglycine] — 67-fold higher, 200 µM
- N=C(N)NCCC[C@H]1C(=O)N(CC(=O)N[C@@H](CC(=O)O)C(=O)N[C@H](C(=O)O)c2ccccc2)C(=O)N1Cc1ccccc1 [Example 38, ((S)-4-(3-Guanidinopropyl)-3-benzyl-2,5-dioxoimidazolidin-1-yl)acetyl-L-aspartyl-L-phenylglycine] — 15-fold higher, 45 µM
- C[C@]1(c2ccc(C(=N)N)cc2)C(=O)N(CC(=O)N[C@@H](CC(=O)O)C(=O)N[C@H](C(=O)O)c2ccccc2)C(=O)N1Cc1ccc2ccccc2c1 [Example 41, ((S)-4-(4-(Amino-imino-methyl)phenyl)-3-((2-naphthyl)methyl)-4-methyl-2,5-dioxoimidazolidin-1-yl)acetyl-L-aspartyl-L-phenylglycine] — 11-fold lower, 0.28 µM
- CC1(c2ccc(C(=N)N)cc2)C(=O)N(CC(=O)NC[C@H](NC(=O)OCc2ccccc2)C(=O)O)C(=O)N1Cc1ccccc1 (stereo partly drawn) [Example 46, (S)-3-(((R,S)-4-(4-(Amino-imino-methyl)phenyl)-3-benzyl-4-methyl-2,5-dioxoimidazolidin-1-yl)acetylamino)-2-benzyloxycarbonylaminopropionic acid] — 2.3-fold higher, 6.8 µM
- COc1ccc(C(CC(=O)O)NC(=O)CN2C(=O)N(Cc3ccccc3)C(C)(c3ccc(C(=N)N)cc3)C2=O)cc1OC [Example 57, (R,S)-3-(((R,S)-4-(4-(Amino-imino-methyl)phenyl)-3-benzyl-methyl-2,5-dioxoimidazolidin-1-yl)acetylamino)-3-(3,4-dimethoxyphenyl)propionic acid] — 5.8-fold higher, 17.5 µM
- CC1(c2ccc(C(=N)N)cc2)C(=O)N(CC(=O)NC(CC(=O)O)c2ccc3c(c2)OCCO3)C(=O)N1Cc1ccccc1 [Example 58, (R,S)-3-(((R,S)-4-(4(Amino-imino-methyl)phenyl)-3-benzyl-4-methyl-2,5-dioxoimidazolidin-1-yl)acetylamino)-3-(3,4-ethylenedioxyphenyl)propionic acid] — 8.3-fold higher, 25 µM
- COc1cc(OC)cc(C(CC(=O)O)NC(=O)CN2C(=O)N(Cc3ccccc3)C(C)(c3ccc(C(=N)N)cc3)C2=O)c1 [Example 59, (R,S)-3-(((R,S)-4-(4-(Amino-imino-methyl)phenyl)-3-benzyl-4-methyl-2,5-dioxoimidazolidin-1-yl)acetylamino)-3-(3,5-dimethoxyphenyl)propionic acid] — 9.2-fold higher, 27.5 µM
- CC(C(=O)N[C@@H](CC(=O)O)C(=O)N[C@H](C(=O)O)c1ccccc1)N1C(=O)N(Cc2ccccc2)C(C)(c2ccc(C(=N)N)cc2)C1=O (stereo partly drawn) [Example 62, ((R,S)-2-((R,S)-4-(4-(Amino-imino-methyl)phenyl)-3-benzyl-4-methyl-2,5-dioxoimidazolidin-1-yl)-2-methylacetyl)-L-aspartyl-L-phenylglycine] — 8.1-fold lower, 0.37 µM
- C[C@]1(c2ccc(C(=N)N)cc2)C(=O)N(CC(=O)N[C@@H](CC(=O)O)C(=O)N[C@H](C(=O)O)c2ccccc2)C(=O)N1Cc1ccccc1 [Example 63] — 14-fold lower, 0.22 µM
- CC1(c2ccc(C(=N)N)cc2)C(=O)N(CC(=O)NC[C@H](NC(=O)OCc2ccc(C(F)(F)F)cc2)C(=O)O)C(=O)N1Cc1ccccc1 (some centres unmarked) [Example 67] — within 1.5-fold, 2.25 µM
- CC1(c2ccc(CNC(=N)N)cc2)C(=O)N(CC(=O)N[C@@H](CC(=O)O)C(=O)N[C@H](C(=O)O)c2ccccc2)C(=O)N1Cc1ccccc1 (stereo partly drawn) [Example 69, ((R,S)-4-(4-Guanidinomethylphenyl)-3-benzyl-4-methyl-2,5-dioxo-imidazolidin-1-yl)acetyl-L-aspartyl-L-phenylglycine] — 1.5-fold higher, 4.5 µM
- CC1(c2ccc(NC(=N)N)cc2)C(=O)N(CC(=O)N[C@@H](CC(=O)O)C(=O)N[C@H](C(=O)O)c2ccccc2)C(=O)N1Cc1ccccc1 (stereo partly drawn) [Example 71, ((R,S)-4-(4-Guanidinophenyl)-3-benzyl-4-methyl-2,5-dioxoimidazolidin-1-yl)acetyl-Laspartyl-L-phenylglycine] — within 1.5-fold, 3.25 µM
